This note sets out measurements from patent publication US20080300199A1, “ANTIBACTERIAL 1,4,5-SUBSTITUTED AMINOGLYCOSIDE ANALOGS” (Achaogen Inc., priority 2007, published 2008).

≈ marks a conversion by molar mass, not a printed value.

Format in all cases: cell-based
Assay [1] has as its system P. aeruginosa APAE1009. Kind of assay: MIC assay, aminoglycoside-resistant P. aeruginosa APAE1009. The settings on record: origin RJ - Greece; for MIC: Pseudomonas aeruginosa, APAE1009, phenotype AAC(6′)-I + Efflux, read-out: MIC (μg/ml) APAE1009; for MIC (μg/ml) APAE1009: phenotype AAC(6′)-I + Efflux. As to the method:
(§1) The MIC assays were carried out in 150 μL volume in duplicate in 96-well clear flat-bottom plates. The bacterial suspension from an overnight culture growth in appropriate medium was added to a solution of test compound in 4% DMSO in water. Final bacterial inoculum was approximately 10^5-10^6 CFU/well. The percent growth of the bacteria in test wells relative to that observed for a well containing no compound was determined by measuring absorbance at 595 nm (A595) after 24 h. […] Both ampicillin and tetracycline are used as antibiotic-positive controls in each screening assay for E. coli, S. aureus and K. pneumoniae. Ciprofloxacin is used as an antibiotic-positive control in each screening assay for P. aeruginosa. Amikacin is used as an antibiotic-positive control in each screening assay for A. baumannii. Each of the bacterial cultures that are available from ATCC (www.atcc.org) is identified by its ATCC number.
(§2) MIC assays were carried out as set forth in Example 20 above against certain aminoglycoside-resistant strains of Pseudomonas Aeruginosa.

The subject of assay [2] is P. aeruginosa APAE042. Briefly: MIC assay, aminoglycoside-resistant P. aeruginosa APAE042. The settings on record: origin SPRI; for MIC: Pseudomonas aeruginosa, APAE042, phenotype AAC(6′)-II, read-out: MIC (μg/ml) APAE042; for MIC (μg/ml) APAE042: phenotype AAC(6′)-II. As to the method:
as §1, §2

The subject of assay [3] is P. aeruginosa APAE1058. Briefly: MIC assay, aminoglycoside-resistant P. aeruginosa APAE1058. The settings on record: origin CF - USA; for MIC: Pseudomonas aeruginosa, APAE1058, phenotype High level efflux, read-out: MIC (μg/ml) APAE1058; for MIC (μg/ml) APAE1058: phenotype High level efflux. As to the method: as §1, §2
For assay [4], the system named is P. aeruginosa APAE040. Kind of assay: MIC assay, aminoglycoside-resistant P. aeruginosa APAE040. The settings on record: origin SPRI; for MIC: Pseudomonas aeruginosa, APAE040, phenotype AAC(3)-I, read-out: MIC (μg/ml) APAE040; for MIC (μg/ml) APAE040: phenotype AAC(3)-I. As to the method: as §1, §2
Assay [5] relates to E. coli ATCC 25922. Briefly: MIC assay, E. coli ATCC 25922. The settings on record: absorbance at 595 nm after 24 h; for MIC: Escherichia coli, ATCC25922, read-out: MIC (μg/ml) E. coli ATCC 25922. As to the method:
as §1, with “CFU/well.” for “CFU/well. The percent growth of the bacteria in test wells relative to that observed for a well containing no compound was determined by measuring absorbance at 595 nm (A595) after 24 h.”, “Ciprofloxacin is used as an antibiotic-positive control in each screening assay for P. aeruginosa.” left out

The subject of assay [6] is P. aeruginosa ATCC 27853. Briefly: MIC assay, P. aeruginosa ATCC 27853. The settings on record: absorbance at 595 nm after 24 h; for MIC: Pseudomonas aeruginosa, ATCC27853, read-out: MIC (μg/ml) P. aeruginosa ATCC 27853. As to the method: as §1, with “CFU/well.” for “CFU/well. The percent growth of the bacteria in test wells relative to that observed for a well containing no compound was determined by measuring absorbance at 595 nm (A595) after 24 h.”, “Ciprofloxacin is used as an antibiotic-positive control in each screening assay for P. aeruginosa.” left out

Assay [7] relates to P. aeruginosa APAE1068. Briefly: MIC assay, aminoglycoside-resistant P. aeruginosa APAE1068. The settings on record: origin Focus - France; for MIC: Pseudomonas aeruginosa, APAE1068, phenotype AAC(6′)-I + Efflux, read-out: MIC (μg/ml) APAE1068; for MIC (μg/ml) APAE1068: phenotype AAC(6′)-I + Efflux. As to the method: as §1, §2
In assay [8] the test system is K. pneumoniae ATCC 10031. Briefly: MIC assay, K. pneumoniae ATCC 10031. The settings on record: absorbance at 595 nm after 24 h; for MIC: Klebsiella pneumoniae, ATCC10031, read-out: MIC (μg/ml) K. pneumoniae ATCC 10031. As to the method:
as §1

Assay [9] concerns S. aureus ATCC 29213. Briefly: MIC assay, S. aureus ATCC 29213. The settings on record: absorbance at 595 nm after 24 h; for MIC: Staphylococcus aureus, ATCC29213, read-out: MIC (μg/ml) S. aureus ATCC 29213. As to the method:
as §1

The test system of assay [10] is aminoglycoside-resistant Pseudomonas aeruginosa. Kind of assay: MIC assays against aminoglycoside-resistant strains of Pseudomonas aeruginosa, summary in words. The note with it: particularly strains expressing efflux-based resistance alone or with AMEs; in comparison to compound 10 and comparative compounds A and B. As to the method: as §1, §2
Assay [11] concerns A. baumannii ATCC 19606. Kind of assay: MIC assay, A. baumannii ATCC 19606. The settings on record: absorbance at 595 nm after 24 h; for MIC: Acinetobacter baumannii, ATCC19606, read-out: MIC (μg/ml) A. baumannii ATCC 19606. As to the method: as §1

Consider `NCC[C@H](O)C(=O)N[C@@H]1C[C@H](N)[C@@H](O[C@H]2O[C@H](CN)C=C[C@H]2N)[C@H](O[C@@H]2O[C@H](CO)[C@@H](O[C@H]3O[C@@H](CN)[C@@H](O)[C@H](O)[C@H]3N)[C@H]2O)[C@H]1O` [Compound 11], for which the MIC in [1] is 2 µg/mL; in assay [2], 0.5 µg/mL (≈ 0.733 µM); in assay [3], 16 µg/mL (≈ 23.5 µM); in assay [4], 1 µg/mL (≈ 1.47 µM); in assay [5] it was 1 to 8 µg/mL (≈ 1.47 to 11.7 µM); in assay [6], 1 to 8 µg/mL (≈ 1.47 to 11.7 µM). The MIC is 2 µg/mL in assay [7], less than 1 µg/mL in assay [8], less than 1 µg/mL in assay [9] and 1 to 8 µg/mL (≈ 1.47 to 11.7 µM) in [11]. In addition, in assay [10], the “activity on aminoglycoside-resistant Pseudomonas aeruginosa strains” value is on record as “superior activity”.

As for `NCC1C=CC(N)C(OC2C(N)CC(N)C(O)C2OC2OC(CO)C(OC3OC(CN)C(O)C(O)C3N)C2O)O1` (centres unmarked) [A, 3′,4′-Di-deoxy-3′,4′-Di-dehydro-neomycin-B, reference compound], the “MIC (μg/ml) APAE1009” value in assay [1] was more than 8 µg/mL. Further, the “MIC (μg/ml) APAE042” value in assay [2] amounted to 4 µg/mL (≈ 6.89 µM). The “MIC (μg/ml) APAE1058” value in assay [3] was more than 8 µg/mL. Besides, the “MIC (μg/ml) APAE040” value in assay [4] is 4 µg/mL (≈ 6.89 µM). The “MIC (μg/ml) APAE1068” value in assay [7] turned out to be 8 µg/mL.

With `NCC[C@H](O)C(=O)NC1CC(N)C(OC2OC(CN)CC(O)C2N)C(OC2OC(CO)C(OC3OC(CN)C(O)C(O)C3N)C2O)C1O` (some centres unmarked) [Compound 18, 4′-Deoxy-N-1 haba neomycin], the “MIC (μg/ml) E. coli ATCC 25922” value in assay [5] is “B (MIC's of greater than 1.0 μg/mL to 8.0 μg/mL = B)”. The “MIC (μg/ml) P. aeruginosa ATCC 27853” value in assay [6] is recorded as “A (MIC's of 1.0 μg/mL or less = A)”. Further, the “MIC (μg/ml) K. pneumoniae ATCC 10031” value in assay [8] was “A (MIC's of 1.0 μg/mL or less = A)”. In addition, in [9], the “MIC (μg/ml) S. aureus ATCC 29213” value was “B (MIC's of greater than 1.0 μg/mL to 8.0 μg/mL = B)”. Moreover, the “MIC (μg/ml) A. baumannii ATCC 19606” value in assay [11] is “B (MIC's of greater than 1.0 μg/mL to 8.0 μg/mL = B)”.

As to `NCC1CCC(N)C(OC2C(N)CC(N)C(O)C2OC2OC(CO)C(OC3OC(CN)C(O)C(O)C3N)C2O)O1` (centres unmarked) [B, 3′,4′-Di-deoxy-neomycin-B, reference compound], in [1], the “MIC (μg/ml) APAE1009” value is more than 8 µg/mL. Also, in assay [2], the “MIC (μg/ml) APAE042” value was determined as 2 µg/mL (≈ 3.43 µM). For the same compound, the “MIC (μg/ml) APAE1058” value in [3] was more than 8 µg/mL. Moreover, the “MIC (μg/ml) APAE040” value in assay [4] is 1 µg/mL (≈ 1.72 µM). Also, the “MIC (μg/ml) APAE1068” value in assay [7] is 4 µg/mL.

In the case of `NCC[C@H](O)C(=O)N[C@@H]1C[C@H](N)[C@@H](O[C@H]2O[C@H](CN)CC[C@H]2N)[C@H](O[C@@H]2O[C@H](CO)[C@@H](O[C@H]3O[C@@H](CN)[C@@H](O)[C@H](O)[C@H]3N)[C@H]2O)[C@H]1O` [Compound 10, 3′,4′-Di-deoxy-N-1 haba neomycin], the MIC in assay [1] is 4 µg/mL; in [2], 1 µg/mL (≈ 1.46 µM); in [3] it was 32 µg/mL (≈ 46.8 µM); in [4] it was 2 µg/mL (≈ 2.93 µM); in assay [5], less than 1 µg/mL; in [6] it was less than 1 µg/mL. Besides, the MIC in assay [7] was 8 µg/mL; in assay [8], less than 1 µg/mL; in assay [9], less than 1 µg/mL; in assay [11] it was 1 to 8 µg/mL (≈ 1.46 to 11.7 µM).

Consider `NCC[C@H](O)C(=O)N[C@@H]1C[C@H](N)[C@@H](O[C@H]2O[C@H](CN)[C@@H](O)[C@H](O)[C@H]2O)[C@H](O)[C@H]1O[C@H]1O[C@H](CO)[C@@H](O)[C@H](N)[C@H]1O` [Amikacin, reference compound], for which the MIC in assay [5] was 1 to 8 µg/mL (≈ 1.71 to 13.7 µM); in [6], 1 to 8 µg/mL (≈ 1.71 to 13.7 µM); in assay [8] it was less than 1 µg/mL; in assay [9], 1 to 8 µg/mL (≈ 1.71 to 13.7 µM); in assay [11], more than 8 µg/mL.
